Experimental data published in ChEMBL document CHEMBL4680094, “Insights of a Lead Optimization Study and Biological Evaluation of Novel 4-Hydroxytamoxifen Analogs as Estrogen-Related Receptor γ (ERRγ) Inverse Agonists” (J Med Chem, 2016).

Key:
[1] = molecular target: T1, Estrogen-related receptor gamma (Homo sapiens, UniProt P62508)
T1 sequence (P62508 whole entry): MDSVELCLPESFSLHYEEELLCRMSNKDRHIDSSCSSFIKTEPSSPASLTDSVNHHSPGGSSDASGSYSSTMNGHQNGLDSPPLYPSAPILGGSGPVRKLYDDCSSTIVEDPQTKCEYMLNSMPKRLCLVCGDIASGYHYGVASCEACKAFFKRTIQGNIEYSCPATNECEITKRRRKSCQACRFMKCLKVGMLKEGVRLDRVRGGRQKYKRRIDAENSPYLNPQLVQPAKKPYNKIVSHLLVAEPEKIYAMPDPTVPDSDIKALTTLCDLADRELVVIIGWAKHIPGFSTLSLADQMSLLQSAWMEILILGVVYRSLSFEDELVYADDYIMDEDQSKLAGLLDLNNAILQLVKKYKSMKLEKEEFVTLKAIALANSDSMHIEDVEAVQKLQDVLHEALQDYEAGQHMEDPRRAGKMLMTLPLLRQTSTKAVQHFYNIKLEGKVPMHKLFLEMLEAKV

[2] = molecular target: T2, Steroid hormone receptor ERR1 (Homo sapiens, UniProt P11474); assay: Binding affinity to GST-tagged ERRalpha LBD (unknown origin) using fluorescein PGC1alpha as coactivator incubated for 1 hr by LanthaScreen TR-FRET co-regulator assay
T2 sequence (P11474 whole entry): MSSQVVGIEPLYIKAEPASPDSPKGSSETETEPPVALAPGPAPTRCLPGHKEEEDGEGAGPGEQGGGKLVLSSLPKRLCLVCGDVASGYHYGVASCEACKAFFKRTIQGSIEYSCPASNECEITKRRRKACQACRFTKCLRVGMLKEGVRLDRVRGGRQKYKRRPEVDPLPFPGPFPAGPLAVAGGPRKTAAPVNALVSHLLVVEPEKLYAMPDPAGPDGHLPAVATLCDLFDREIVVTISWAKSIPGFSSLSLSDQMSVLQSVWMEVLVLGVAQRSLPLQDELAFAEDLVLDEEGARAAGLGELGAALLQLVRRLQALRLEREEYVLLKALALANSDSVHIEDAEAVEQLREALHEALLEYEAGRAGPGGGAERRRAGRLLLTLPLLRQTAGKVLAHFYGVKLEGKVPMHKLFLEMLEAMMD

[3] = molecular target: T3, Steroid hormone receptor ERR2 (Homo sapiens, UniProt O95718); assay: Binding affinity to GST-tagged ERRbeta LBD (unknown origin) using fluorescein PGC1alpha as coactivator incubated for 1 hr by LanthaScreen TR-FRET co-regulator assay
T3 sequence (O95718 whole entry): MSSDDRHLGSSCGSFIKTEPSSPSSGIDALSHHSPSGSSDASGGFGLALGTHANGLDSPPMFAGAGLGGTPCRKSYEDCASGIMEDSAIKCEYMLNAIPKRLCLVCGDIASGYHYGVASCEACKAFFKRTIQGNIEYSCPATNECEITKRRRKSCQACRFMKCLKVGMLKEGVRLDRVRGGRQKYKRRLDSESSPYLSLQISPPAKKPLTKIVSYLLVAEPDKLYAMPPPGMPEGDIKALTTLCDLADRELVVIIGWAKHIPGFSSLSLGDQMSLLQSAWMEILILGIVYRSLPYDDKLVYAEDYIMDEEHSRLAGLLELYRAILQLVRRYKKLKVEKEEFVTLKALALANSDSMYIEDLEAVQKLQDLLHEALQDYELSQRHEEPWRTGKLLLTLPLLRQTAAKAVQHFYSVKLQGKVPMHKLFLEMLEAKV

[4] = molecular target: T4, Estrogen receptor (Homo sapiens, UniProt P03372); assay: Binding affinity to GST-tagged ERalpha LBD (unknown origin) using fluorescein PGC1alpha as coactivator incubated for 1 hr by LanthaScreen TR-FRET co-regulator assay
T4 sequence (P03372 whole entry): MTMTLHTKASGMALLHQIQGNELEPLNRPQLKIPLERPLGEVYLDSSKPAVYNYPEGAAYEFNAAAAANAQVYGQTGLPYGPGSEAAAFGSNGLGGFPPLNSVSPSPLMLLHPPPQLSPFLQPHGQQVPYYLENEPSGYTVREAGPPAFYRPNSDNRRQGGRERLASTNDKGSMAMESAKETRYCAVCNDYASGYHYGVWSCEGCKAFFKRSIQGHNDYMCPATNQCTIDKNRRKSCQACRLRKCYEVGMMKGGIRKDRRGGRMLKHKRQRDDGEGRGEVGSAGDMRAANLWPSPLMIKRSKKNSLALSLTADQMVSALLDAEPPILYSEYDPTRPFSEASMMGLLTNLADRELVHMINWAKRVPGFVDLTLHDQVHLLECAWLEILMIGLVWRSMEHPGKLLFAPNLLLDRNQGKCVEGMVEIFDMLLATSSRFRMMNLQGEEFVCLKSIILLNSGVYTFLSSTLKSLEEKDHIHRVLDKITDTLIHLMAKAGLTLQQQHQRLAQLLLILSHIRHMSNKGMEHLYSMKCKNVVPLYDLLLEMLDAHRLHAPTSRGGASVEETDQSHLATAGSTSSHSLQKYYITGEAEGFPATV

Structure (SMILES) | IC50 [1] | IC50 [2] | IC50 [3] | IC50 [4]
O=C(Nc1ccc(/C(=C(/CCCO)c2ccccc2)c2ccc(O)cc2)cc1)C1CCCN1 (stereo not given) | > 10000 nM |  |  | 
CN1C[C@H]1CCCOc1ccc(/C(=C(/CCCO)c2ccccc2)c2ccc(O)cc2)cc1 (stereo not given in full) | 784 nM |  |  | 
CN1CCC[C@H]1CCOc1ccc(/C(=C(/CCCO)c2ccccc2)c2ccc(O)cc2)cc1 |  | > 10000 nM | 8590 nM | 724 nM
OCCC/C(=C(\c1ccc(O)cc1)c1ccc(OCCN2CCCC2)cc1)c1ccccc1 |  | > 10000 nM | > 10000 nM | 649 nM
CC(C)(C)OC(=O)N1CCC(n2cc(/C(=C(/CCCO)c3ccccc3)c3ccc(O)cc3)cn2)CC1 | > 10000 nM |  |  | 
OCCC/C(=C(\c1ccc(O)cc1)c1ccc(OCCN2CCNCC2)cc1)c1ccccc1 | 1040 nM |  |  | 
OCCC/C(=C(\c1ccc(O)cc1)c1ccc(NCCN2CCCCC2)cc1)c1ccccc1 | 1550 nM |  |  | 
O=[N+]([O-])c1ccc(/C(=C(\CCCO)c2ccccc2)c2ccc(N3CCC4(CCNC4)C3)cc2)cc1 (stereo not given) | 8230 nM |  |  | 
Cc1ccc(/C(=C(\CCCO)c2ccccc2)c2ccc3oc(CCN4CCNCC4)cc3c2)cc1 | 2130 nM |  |  | 
CN1C[C@@H]1CCCOc1ccc(/C(=C(/CCCO)c2ccccc2)c2ccc(Br)cc2)cc1 (stereo not given in full) | 1660 nM |  |  | 
OCCC/C(=C(\c1ccc(O)cc1)c1ccc(OCCN2C[C@H]3CNC[C@H]3C2)cc1)c1ccccc1 | 165 nM | > 10000 nM | > 10000 nM | 407 nM
O=C(CN1C[C@H]2CNC[C@H]2C1)Nc1ccc(/C(=C(/CCCO)c2ccccc2)c2ccc(O)cc2)cc1 | 7420 nM |  |  | 
CN1CCN(Cc2ccc(/C(=C(/CCCO)c3ccccc3)c3ccc([N+](=O)[O-])cc3)cc2)CC1 | > 10000 nM |  |  | 
C[Si](C)(CN1CCCCC1)c1ccc(/C(=C(/CCCO)c2ccccc2)c2ccc(O)cc2)cc1 | 248 nM | > 10000 nM | > 10000 nM | 4360 nM
OCCC/C(=C(\c1ccc(O)cc1)c1ccc2oc(CCN3CCCCC3)cc2c1)c1ccccc1 | 268 nM | > 10000 nM | > 10000 nM | 660 nM
CN1CCC[C@@H]1CCOc1ccc(/C(=C(/CCCO)c2ccccc2)c2ccc(O)cc2)cc1 |  | > 10000 nM | > 10000 nM | 784 nM
OCCC/C(=C(\c1ccc(O)cc1)c1ccc2c(c1)CCN2CCN1CCCC1)c1ccccc1 | 8020 nM |  |  | 
C[Si](C)(CN1CCCC1)c1ccc(/C(=C(/CCCO)c2ccccc2)c2ccc(O)cc2)cc1 | 813 nM | > 10000 nM | > 10000 nM | > 10000 nM

Structure (SMILES) | IC50 [1] | IC50 [2] | IC50 [3] | IC50 [4]
OCCC/C(=C(\c1ccc(O)cc1)c1ccc(OCCN2CC3CC3C2)cc1)c1ccccc1 (stereo not given) |  | > 10000 nM |  | 
OCCC/C(=C(\c1ccc(O)cc1)c1ccc(OCCN2C[C@H]3C[C@H]3[C@H]2CO)cc1)c1ccccc1 |  | > 10000 nM |  | 
OCCC/C(=C(\c1ccc(Br)cc1)c1ccc(CN2CCCCC2)cc1)c1ccccc1 | 2300 nM |  |  | 
OCCC/C(=C(\c1ccc(O)cc1)c1ccc(OCCN2CCC3(CCNC3)C2)cc1)c1ccccc1 (stereo not given) | 326 nM | > 10000 nM | > 10000 nM | 5600 nM
OCCC/C(=C(\c1ccc(O)cc1)c1ccc(OCCN2CCC[C@@H]2CO)cc1)c1ccccc1 |  | > 10000 nM | > 10000 nM | 
CN1CCN(CCOc2ccc(/C(=C(/CCCO)c3ccccc3)c3ccc(O)cc3)cc2)CC1 | 2200 nM |  |  | 
OCCC/C(=C(\c1ccc(O)cc1)c1ccc(OCCN2CC2)cc1)c1ccccc1 | 70 nM | > 10000 nM | 3720 nM | 
OCCC/C(=C(\c1ccc(O)cc1)c1ccc(N2CCOCC2)cc1)c1ccccc1 | 2230 nM |  |  | 
C[Si](C)(CN1CCNCC1)c1ccc(/C(=C(/CCCO)c2ccccc2)c2ccc(O)cc2)cc1 | 1280 nM |  |  | 
O=C(CN1CCCCC1)Nc1ccc(/C(=C(/CCCO)c2ccccc2)c2ccc(O)cc2)cc1 | 2780 nM |  |  | 
OCCC/C(=C(\c1ccc(O)cc1)c1ccc2c(ccn2CCN2CCCCC2)c1)c1ccccc1 | 3610 nM |  |  | 
OCCC/C(=C(\c1ccc(Br)cc1)c1ccc(OCCN2CC2)cc1)c1ccccc1 | 1520 nM |  |  | 
CN1CCN(C[Si](C)(C)c2ccc(/C(=C(/CCCO)c3ccccc3)c3ccc(O)cc3)cc2)CC1 | 1260 nM |  |  | 
CN(C)CCn1cc(-c2ccc(/C(=C(/CCCO)c3ccccc3)c3ccc(O)cc3)cc2)nn1 | 6300 nM |  |  | 
CN1CCN(Cc2ccc(/C(=C(/CCCO)c3ccccc3)c3ccc(O)cc3)cc2)CC1 | 2340 nM |  |  | 
C[Si](C)(CN1C[C@H]2CNC[C@H]2C1)c1ccc(/C(=C(/CCCO)c2ccccc2)c2ccc(O)cc2)cc1 | 460 nM |  |  | 
OCCC/C(=C(\c1ccc(O)cc1)c1ccc2oc(CCN3CCNCC3)cc2c1)c1ccccc1 | 894 nM |  |  | 
CN1C[C@@H]1CCCOc1ccc(/C(=C(/CCCO)c2ccccc2)c2ccc(O)cc2)cc1 (stereo not given in full) | 1090 nM |  |  | 
